Test results taken from US11892435B2, “NMR methods for measuring pH in oral care, home care and personal care products” (Colgate-Palmolive Company, priority 2018, dated 2024).

Experiment: 13C NMR pH titration of sodium lactate/lactic acid solutions, nonlinear least squares fit of Equation 5
Assay type: physicochemical
Settings: carboxyl group of lactic acid, about 1 weight % sodium lactate and lactic acid, pH about 2 to about 5.5, fit of 13C chemical shift vs pH
Protocol: In at least one implementation, the chemical species or molecular or molecular entity may be or include a carboxyl group, such as the carboxyl group of a lactic acid, where the observed C-13 chemical shift can be expressed according to equation (5): pH=pKa+log [(δC−δCO2H)/(δCO2^−−δC)] (5)
A calibration curve was prepared for measuring lactic acid with an NMR by using standardized buffered solutions of sodium lactate and lactic acid at different mole ratios in water at varying pH. The solutions included a total concentration of sodium lactate and lactic acid at about 1 weight %, and the pH was varied from a pH of about 2 to about 5.5. NMR was performed on the samples to obtain C-13 chemical shift values. A pH electrode was utilized to measure the pH of each of the standardized samples, and the calibration curve was prepared by correlating the measured C-13 chemical shift to the pH values measured by the pH electrode, as illustrated in FIG. 4. As such, the observed ^13C chemical shift of the carbonyl group (δC) was expressed as the weighted average of the ^13C chemical shift between CO2H (δCO2H) and CO2^−(δCO2^−). The pH of the carboxyl group was described in terms of pKa of the carboxyl group, as represented by Equation 5. pH=pKa+log [(δC−δCO2H)/(δCO2^−−δC)] (5)
The nonlinear least squares fit was applied to determine the values of the pKa, the δCO2^−, and the δCO2H.

With `CC(O)C(=O)O` (stereo not shown) [lactic acid] the pKa was 3.73.
